According to patent publication US20020058683A1, “Oral combination of lufenuron and nitenpyram against fleas” (priority 1998, published 2002):

Key:
[1] = tested on: Cat flea Ctenocephalides felis; assay: Example B1: activity against fleas on dogs in a contaminated environment, oral tablets; assay type: in vivo
Text: Comparison Between the Activity of Lufenuron Alone and the Combination of Nitenpyran and Lufenuron Against Dog Fleas in a Contaminated Environment Corresponding to Actual Conditions.
In the study, conditions existing in the household were simulated. To this end, 4 isolated and clinically clean rooms were used. They contained a sleeping area laid out with straw and a small run to the outside. The rooms were subjected to natural light conditions. […] Subsequently, each group of dogs underwent different treatment.
Control group 1 was given no active ingredient, but only a placebo and served as the reference group. Group 2 was given lufenuron in a monthly dosage in accordance with the instructions on the packet and once a week was given a placebo. Group 3 was given lufenuron in a monthly dosage in accordance with the instructions on the packet, and once a week was additionally given nitenpyram for a period of 6 weeks. Group 4 was given lufenuron in a monthly dosage in accordance with the instructions on the packet, and twice a week was additionally given nitenpyram for a period of 6 weeks.
In all four groups, the flea population was determined by counting them twice weekly before the first treatment and once weekly during treatment.
The activity of the test substances was determined under simulated household conditions in accordance with the following formula: [formula]

[2] = tested on: fleas present on the cats; settings: cited from earlier work
[3] = tested on: fleas; settings: in vitro test, cited from earlier work

| SMILES | Activity (% relative to control) ([1]; days 0-28 after first treatment, monthly lufenuron only (Group 2)) [%] | Activity (% relative to control) ([1]; days 29-56, monthly lufenuron only (Group 2)) [%] | Activity (% relative to control) ([1]; days 57-84, monthly lufenuron only (Group 2)) [%] | Activity (% relative to control) ([1]; days 85-112, monthly lufenuron only (Group 2)) [%] | time until activity achieved a satisfactory level for practical usage ([1]; group 2, treated solely with lufenuron) | time within which all the fleas except one died ([1]; after the first administration of nitenpyram) [days] | activity against the fleas present on the cats ([2]; 6 hours after oral administration to cats) [%] | activity against fleas ([2]; cats, oral, on the second day after renewed infestation) [%] | activity ([3]; after 24 hours) [%] | time to first, substantial activity ([3]; after feeding contaminated blood to fleas) [min] |
| --- | --- | --- | --- | --- | --- | --- | --- | --- | --- | --- |
| O=C(NC(=O)c1c(F)cccc1F)Nc1cc(Cl)c(OC(F)(F)C(F)C(F)(F)F)cc1Cl (racemic) [lufenuron, (R,S)-1-[2,5-dichloro-4-(1,1,2,2,3,3,3-hexafluoropropoxy)-phenyl]-3-(2,6-difluorobenzoyl)urea] | 25.4 | 78.6 | 72.1 | 94.3 | ca. 84 days |  |  |  |  |  |
| CCN(Cc1ccc(Cl)nc1)/C(=C/[N+](=O)[O-])NC [nitenpyram, (E)-N-(6-chloro-pyridin-3-ylmethyl)-N-ethyl-N′-methyl-2-nitrovinylidenediamine] |  |  |  |  |  | 16 to 24 | 60 | 55 | 100 | 30 |
